# Data reported in US8192962B2, “Processes for detecting toxic substances” (Daikin Industries, Ltd., priority 2001, dated 2012).
# Test system: Transport facilitation protein genes
# Test: DNA chip mRNA expression in yeast, transport facilitation protein genes (Table 5)
# Format: cell-based, Saccharomyces cerevisiae S288C
# Method in brief: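 Untreated cultures served as reference for log-phase S288C yeast given a growth-inhibiting, non-lethal toxicant dose for 2 h at 25° C. in YPD. Gene expression was measured on a whole-genome DNA chip from Cy3/Cy5-labeled cDNA.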
structure (smiles),measurement,setting,value
"O=[N+]([O-])c1cc[n+]([O-])c2ccccc12 [(5), 4-nitroquinolin-N-oxide]",The level of expressed mRNA in the presence of chemical substance/The level of expressed mRNA in the absence of chemical substance,yeast gene YBL030C,0.7
same,The level of expressed mRNA in the presence of chemical substance/The level of expressed mRNA in the absence of chemical substance,yeast gene YBL099W,1.0
same,The level of expressed mRNA in the presence of chemical substance/The level of expressed mRNA in the absence of chemical substance,yeast gene YBR052C,1.4
same,The level of expressed mRNA in the presence of chemical substance/The level of expressed mRNA in the absence of chemical substance,yeast gene YBR068C,1.4
same,The level of expressed mRNA in the presence of chemical substance/The level of expressed mRNA in the absence of chemical substance,yeast gene YBR127C,1.4
same,The level of expressed mRNA in the presence of chemical substance/The level of expressed mRNA in the absence of chemical substance,yeast gene YBR132C,0.8
same,The level of expressed mRNA in the presence of chemical substance/The level of expressed mRNA in the absence of chemical substance,yeast gene YBR207W,1.7
same,The level of expressed mRNA in the presence of chemical substance/The level of expressed mRNA in the absence of chemical substance,yeast gene YBR293W,0.8
same,The level of expressed mRNA in the presence of chemical substance/The level of expressed mRNA in the absence of chemical substance,yeast gene YBR294W,1.4
same,The level of expressed mRNA in the presence of chemical substance/The level of expressed mRNA in the absence of chemical substance,yeast gene YBR295W,0.8
same,The level of expressed mRNA in the presence of chemical substance/The level of expressed mRNA in the absence of chemical substance,yeast gene YBR298C,1.4
same,The level of expressed mRNA in the presence of chemical substance/The level of expressed mRNA in the absence of chemical substance,yeast gene YCL025C,0.9
same,The level of expressed mRNA in the presence of chemical substance/The level of expressed mRNA in the absence of chemical substance,yeast gene YCL038C,1.2
same,The level of expressed mRNA in the presence of chemical substance/The level of expressed mRNA in the absence of chemical substance,yeast gene YCR024C-A,0.9
same,The level of expressed mRNA in the presence of chemical substance/The level of expressed mRNA in the absence of chemical substance,yeast gene YCR037C,1.3
same,The level of expressed mRNA in the presence of chemical substance/The level of expressed mRNA in the absence of chemical substance,yeast gene YCR098C,1.4
same,The level of expressed mRNA in the presence of chemical substance/The level of expressed mRNA in the absence of chemical substance,yeast gene YDL128W,1.0
same,The level of expressed mRNA in the presence of chemical substance/The level of expressed mRNA in the absence of chemical substance,yeast gene YDL198C,0.7
same,The level of expressed mRNA in the presence of chemical substance/The level of expressed mRNA in the absence of chemical substance,yeast gene YDL210W,0.9
same,The level of expressed mRNA in the presence of chemical substance/The level of expressed mRNA in the absence of chemical substance,yeast gene YDL245C,1.3
same,The level of expressed mRNA in the presence of chemical substance/The level of expressed mRNA in the absence of chemical substance,yeast gene YDR038C,0.9
same,The level of expressed mRNA in the presence of chemical substance/The level of expressed mRNA in the absence of chemical substance,yeast gene YDR039C,1.3
same,The level of expressed mRNA in the presence of chemical substance/The level of expressed mRNA in the absence of chemical substance,yeast gene YDR086C,1.0
same,The level of expressed mRNA in the presence of chemical substance/The level of expressed mRNA in the absence of chemical substance,yeast gene YDR270W,1.0
same,The level of expressed mRNA in the presence of chemical substance/The level of expressed mRNA in the absence of chemical substance,yeast gene YDR298C,1.3
same,The level of expressed mRNA in the presence of chemical substance/The level of expressed mRNA in the absence of chemical substance,yeast gene YDR342C,1.6
same,The level of expressed mRNA in the presence of chemical substance/The level of expressed mRNA in the absence of chemical substance,yeast gene YDR343C,1.3
same,The level of expressed mRNA in the presence of chemical substance/The level of expressed mRNA in the absence of chemical substance,yeast gene YDR345C,1.3
same,The level of expressed mRNA in the presence of chemical substance/The level of expressed mRNA in the absence of chemical substance,yeast gene YDR387C,0.9
same,The level of expressed mRNA in the presence of chemical substance/The level of expressed mRNA in the absence of chemical substance,yeast gene YDR497C,0.7
same,The level of expressed mRNA in the presence of chemical substance/The level of expressed mRNA in the absence of chemical substance,yeast gene YEL027W,1.0
same,The level of expressed mRNA in the presence of chemical substance/The level of expressed mRNA in the absence of chemical substance,yeast gene YEL063C,1.2
same,The level of expressed mRNA in the presence of chemical substance/The level of expressed mRNA in the absence of chemical substance,yeast gene YEL065W,1.4
same,The level of expressed mRNA in the presence of chemical substance/The level of expressed mRNA in the absence of chemical substance,yeast gene YER053C,0.6
same,The level of expressed mRNA in the presence of chemical substance/The level of expressed mRNA in the absence of chemical substance,yeast gene YFL011W,1.3
same,The level of expressed mRNA in the presence of chemical substance/The level of expressed mRNA in the absence of chemical substance,yeast gene YFL041W,1.2
same,The level of expressed mRNA in the presence of chemical substance/The level of expressed mRNA in the absence of chemical substance,yeast gene YFL050C,1.0
same,The level of expressed mRNA in the presence of chemical substance/The level of expressed mRNA in the absence of chemical substance,yeast gene YFL054C,1.3
same,The level of expressed mRNA in the presence of chemical substance/The level of expressed mRNA in the absence of chemical substance,yeast gene YGL006W,1.0
same,The level of expressed mRNA in the presence of chemical substance/The level of expressed mRNA in the absence of chemical substance,yeast gene YGL008C,0.8
same,The level of expressed mRNA in the presence of chemical substance/The level of expressed mRNA in the absence of chemical substance,yeast gene YGL104C,1.0
same,The level of expressed mRNA in the presence of chemical substance/The level of expressed mRNA in the absence of chemical substance,yeast gene YGL167C,1.2
same,The level of expressed mRNA in the presence of chemical substance/The level of expressed mRNA in the absence of chemical substance,yeast gene YGL255W,1.4
same,The level of expressed mRNA in the presence of chemical substance/The level of expressed mRNA in the absence of chemical substance,yeast gene YGR055W,1.3
same,The level of expressed mRNA in the presence of chemical substance/The level of expressed mRNA in the absence of chemical substance,yeast gene YGR065C,1.2
same,The level of expressed mRNA in the presence of chemical substance/The level of expressed mRNA in the absence of chemical substance,yeast gene YGR082W,0.9
same,The level of expressed mRNA in the presence of chemical substance/The level of expressed mRNA in the absence of chemical substance,yeast gene YGR096W,1.2
same,The level of expressed mRNA in the presence of chemical substance/The level of expressed mRNA in the absence of chemical substance,yeast gene YGR138C,0.8
same,The level of expressed mRNA in the presence of chemical substance/The level of expressed mRNA in the absence of chemical substance,yeast gene YGR191W,0.8
same,The level of expressed mRNA in the presence of chemical substance/The level of expressed mRNA in the absence of chemical substance,yeast gene YGR197C,0.7
same,The level of expressed mRNA in the presence of chemical substance/The level of expressed mRNA in the absence of chemical substance,yeast gene YGR224W,1.4
same,The level of expressed mRNA in the presence of chemical substance/The level of expressed mRNA in the absence of chemical substance,yeast gene YGR260W,0.8
